Measurements from patent US5541169A, “Azoxy compound” (Kowa Company, Ltd., priority 1992, dated 1996).
Values after ≈ are worked out from the molar mass of the structure shown.

Key:
[1] = Stability in ethanol (residual ratio by HPLC); assay type: physicochemical; conditions: 50% ethanol, 50% ethanol solution, 0.01%; for remaining at 2160 h: 3 months; for remaining at 288 h: 12 days
Method: The residual ratio was determined under the following conditions by the HPLC method.
*Measured in a 50% ethanol solution (sample concentration: 0.01%)
Column: STR ODSM 4.6 × 150 mm
Injection volume: 40 μl
Mobile phase: CH3 CN:H2 O (1:1)
Temperature: room temperature

Trichophyton rubrum = assay: Minimum inhibitory concentration, agar plate dilution method (Sabouraud dextrose medium); assay type: cell-based; conditions: T.r.
Method: (§1) The minimum inhibition concentration was assayed by the agar plate dilution method using Sabouraud dextrose medium.

Candida albicans = assay: as above; assay type: cell-based; conditions: C.a.
Method: as §1

Microsporum canis = assay: as above; assay type: cell-based; conditions: M.c.
Method: as §1

[2] = tested on: Trichophyton mentagrophytes; assay: as above; assay type: cell-based; conditions: T.m.
Method: as §1

fungi = conditions: prior-art compounds; cited from earlier work
[3] = prior-art compounds; cited from earlier work

Row | remaining at 2160 h ([1]; 4° C.) [%] | remaining at 2160 h ([1]; 25° C.) [%] | remaining at 2160 h ([1]; 40° C.) [%] | remaining at 2160 h ([1]; pH 4, pH 4, 40° C.) [%] | remaining at 2160 h ([1]; pH 6, pH 6, 40° C.) [%] | remaining at 2160 h ([1]; pH 8, pH 8, 40° C.) [%] | MIC (Trichophyton rubrum) [µg/mL] | MIC (Candida albicans) [µg/mL] | MIC (Microsporum canis) [µg/mL] | MIC [2] [µg/mL] | remaining at 288 h ([1]; 4° C.) [%] | remaining at 288 h ([1]; 25° C.) [%] | remaining at 288 h ([1]; 40° C.) [%] | remaining at 288 h ([1]; pH 4, pH 4, 40° C.) [%] | remaining at 288 h ([1]; pH 6, pH 6, 40° C.) [%] | remaining at 288 h ([1]; pH 8, pH 8, 40° C.) [%] | SMILES | antifungal activity (in words) (fungi) | stability (in words) [3]
1 | 99.6 | 99.3 | 92.7 | 101 | 101 | 83.6 | 1.6 (≈ 4 µM) | 12.5 (≈ 31.2 µM) | 1.6 (≈ 4 µM) | 0.8 (≈ 2 µM) |  |  |  |  |  |  | C[C@H](N=[N+]([O-])C=Cc1ccc(OCC#CI)cc1)[C@@H](C)O [5 (2R), 2(R)-3(S)-3-(4-(3-iodo-2-propynyloxy)styryl-ONN-azoxy)-2-butanol] |  | 
2 | 99.8 | 97.4 | 86.1 | 100 | 99.1 | 74.2 | 1.6 (≈ 4 µM) | 6.3 (≈ 15.7 µM) | 1.6 (≈ 4 µM) | 0.8 (≈ 2 µM) |  |  |  |  |  |  | C[C@H](O)[C@H](C)N=[N+]([O-])C=Cc1ccc(OCC#CI)cc1 [5 (2S), 2(S)-3(S)-3-(4-(3-iodo-2-propynyloxy)styryl-ONN-azoxy)-2-butanol] |  | 
3 |  |  |  |  |  |  |  |  |  |  | 99.3 | 95.8 | 96.6 | 0 | 79.7 | 91.4 | CC(=NO)[C@H](C)N=[N+]([O-])/C=C/c1ccc(OCC#CI)cc1 [Control, reference compound] |  | 
4 |  |  |  |  |  |  | 0.8 (≈ 1.91 µM) | 50 (≈ 119 µM) | 1.6 (≈ 3.82 µM) | 0.4 (≈ 0.955 µM) |  |  |  |  |  |  | CC(=C[N+]([O-])=NC(C)COCC#CI)c1ccc(Cl)cc1 (centres unmarked) [Example 1, 2-(2-(4-chlorophenyl)-1-propenyl-ONN-azoxy)-1-(3-iodo-2-propynyloxy)propan] |  | 
5 |  |  |  |  |  |  | 1.6 (≈ 3.7 µM) | 50 (≈ 116 µM) | 1.6 (≈ 3.7 µM) | 1.6 (≈ 3.7 µM) |  |  |  |  |  |  | CC(=C[N+]([O-])=NC(C)C(C)OCC#CI)c1ccccc1Cl (centres unmarked) [Example 2, 3-(2-(2-chlorophenyl)-1-propenyl-ONN-azoxy)-2-(3-iodo-2-propynyloxy)butane] |  | 
6 |  |  |  |  |  |  | 0.2 (≈ 0.729 µM) | 25 (≈ 91.1 µM) | 0.2 (≈ 0.729 µM) |  |  |  |  |  |  |  | C#CCOc1ccc(C=C[N+]([O-])=NC(C)C(C)O)cc1 (centres unmarked) [Example 3, 3-(4-(2-propynyloxy)styryl-ONN-azoxy)-2-butanol] |  | 
7 |  |  |  |  |  |  | 1.6 (≈ 4.28 µM) | 6.3 (≈ 16.8 µM) | 0.8 (≈ 2.14 µM) | 1.6 (≈ 4.28 µM) |  |  |  |  |  |  | CC(O)C(C)N=[N+]([O-])c1ccc(OCC#CI)cc1 (centres unmarked) [Example 11, 3-(4-(3-iodo-2-propynyloxy)phenyl-ONN-azoxy)-2-butanol] |  | 
8 | 100 | 99.4 | 100 | 100 | 99.9 | 100 | 1.6 (≈ 4.28 µM) | 6.3 (≈ 16.8 µM) | 0.8 (≈ 2.14 µM) | 1.6 (≈ 4.28 µM) | 100 | 102 | 99.8 | 99.7 | 100 | 100 | C[C@H](N=[N+]([O-])c1ccc(OCC#CI)cc1)[C@@H](C)O [Example 17, 2(R)-3(S)-3-(4-(3-iodo-2-propynyloxy)phenyl-ONN-azoxy)-2-butanol] |  | 
9 |  |  |  |  |  |  |  |  |  |  |  |  |  |  |  |  | CCCC/C=C/[N+]([O-])=N[C@@H](C)C(C)=O [KA-7367A] | excellent antifungal activity | unstable
